# Data published in publication PMC8248988, “A signal capture and proofreading mechanism for the KDEL-receptor explains selectivity and dynamic range in ER retrieval” (eLife, 2021).
# Target: T1, human KDELR1 N54K (Homo sapiens, UniProt P24390, N54K)
# T1 construct: expressed in transfected cells; host or cells: COS-7
# Test: ER retrieval assay, KDELR1 N54K-GFP
# Assay type: cell-based
# Details: COS-7 cells
# From the text: To create KDELR1-GFP and KDELR2-GFP, the reading frames for Homo sapiens KDELR1 (Uniprot: P24390) and KDELR2 (Uniprot: P33947) were cloned into the pEF5/FRT low level mammalian expression vector with a C-terminal 20 amino acid linker made up of 5 copies of Gly-Ser-Ser-Ser followed by GFP. Specific point mutations were introduced using the Quickchange protocol (Stratagene) and are described in the key resources table and figures. To create the mScarlet-KDEL^sec ligand construct, mScarlet with an N-terminal hGH signal peptide and the 16 C-terminal residues of human BiP at its C-terminus, containing the KDEL signal, was cloned into the pcDNA3.1 vector. […] The Golgi marker protein TGN46 was detected by antibody (sheep anti-TGN46 AHP500G; AbD Serotec) and an Alexa 647 conjugated secondary anti-sheep secondary (A-21448, Invitrogen). In Figure 1d and e, endogenous KDELR was detected by antibody (mouse anti-KDELR ADI-VAA-PT048; Enzo Life Sciences) and Alexa 488 conjugated anti-mouse secondary antibody (A-21202, Invitrogen). For retrieval assays in other figures, KDELR-GFP fusion proteins were directly detected by fluorescence. The mScarlet-xDEL fusion proteins were directly detected by fluorescence. […] The fraction of KDEL receptor in the Golgi apparatus was calculated by dividing the Golgi signal by the total cell signal. […]
# T1 sequence (P24390 whole entry N54K): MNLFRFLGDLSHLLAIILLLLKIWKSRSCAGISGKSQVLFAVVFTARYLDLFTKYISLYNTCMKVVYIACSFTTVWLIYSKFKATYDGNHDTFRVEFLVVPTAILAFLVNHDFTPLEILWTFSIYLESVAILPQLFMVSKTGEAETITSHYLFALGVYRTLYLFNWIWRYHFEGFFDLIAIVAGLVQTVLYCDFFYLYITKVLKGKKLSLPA
substance,measurement,value
"ADEL [pcDNA3.1 hGHss-mScarlet-H. sapiens BiP639-654K651A (ADEL^SEC), secreted mScarlet fusion with human BiP C-terminus, ADEL signal]",ligand-induced receptor retrieval to the ER (in words),did not result in ADEL or DDEL recognition
